According to US20250213560A1, “NITROGEN-CONTAINING HETEROCYCLIC COMPOUNDS HAVING PHENYL GROUP AND USES THEREOF” (BNH RESEARCH CO., LTD., priority 2022, published 2025):

Legend:
293T cells = assay: Cytotoxicity test (CCK-8 cell viability) in 293T cells; type: cell-based, human; details: 293T cell line
Experimental: Human undifferentiated neuroblastoma cell line SH-SY5Y and human embryonic kidney cell line (HEK)-293T were purchased from Korean Cell Line Bank (Korea) and Takara (Japan), respectively. Cells were grown in HyClone Minimal Essential Medium (MEM) and Dulbecco's Modified Eagle Medium (DMEM), respectively, supplemented with 10% (v/v) fetal bovine serum (FBS), penicillin (100 U/mL), and streptomycin ([…]). Cells were maintained in a humidified atmosphere of 95% air and 5% CO2 at 37° C. Cells were passaged 10 times at maximum. Cells were dissociated using 0.05% trypsin-EDTA solution and the cells were seeded in new culture dishes for maintenance.
To examine the cytotoxicity of compounds described herein in human cell lines, SH-SY5Y and 293T cells were used. Approximately 8,000 cells (for 293T) and 15,000 cells (for SH-SY5Y) were plated per well of a 96-well plate (SPL Life Sciences Co., Ltd., Pocheon, Korea). After incubating at 37° C. for 24 hours in a humidified atmosphere containing 5% CO2, the culture medium was replaced by a series of concentrations of test compounds diluted in the corresponding culture medium.
The time of co-incubation was 24 hours and six replicates were made for each measurement. Finally, 10 μL of CCK-8 reagent (Dojindo Laboratories, Rockville, MD) was added to each well, and after incubation at 37° C. for 3 minutes, the OD at 450 nm was measured using a multifunction microplate reader (Tecan Infinite M200 Pro). These measurements were compared to that of a control and expressed as a percentage of the control to calculate cell viability. The IC50 value was calculated using SPSS software. To do this, the absorbance of the blank wells with only growth medium is subtracted from the values or the wells with cells. The readout value of background (vehicle) was set as a 100% viability, and then the percent viability for each test solution was calculated.
The data was presented as the mean value and standard error of the mean (S.E.M.). Statistical analysis was performed with the one-way ANOVA with Tukey's post hoc test (GraphPad Prism 5 software package, version 5.02, GraphPad Software Inc. USA). Significance was accepted at p<0.05.
The cytotoxicity of the compound was evaluated by treating cells with BnH12003 and measuring cell viability.
By treating cells with various BnH12 series compounds and measuring cell viability using the experimental procedure described in Example 2, the cytotoxicity of the compounds was evaluated.

GluN2B = GluN2B protein expression by Western blot in primary cortical neuron cells; type: cell-based, mouse
Experimental: Meanwhile, primary cortical neuron cells were isolated from cerebral cortices of 18-day-old mouse fetuses, incubated in prep media (composition (mM): NaCl 107.5, NaH2PO4 1, NaHCO333.5, glucose 11, HEPS 1%, penicillin-streptomycin 1%) containing 0.25% trypsin and DNasel for 30 minutes, dissociated into single cells, and seeded. Primary cortical neuron cells were grown in Neurobasal medium supplemented with 1% (v/v) B27, 1% penicillin (100 U/mL), streptomycin ([…]), and 1% Glutamax. Cells were maintained in a humidified atmosphere of 95% air and 5% CO2 at 37° C. Drug efficacy was evaluated after culturing primary cortical neuron cells for 14 days.
The amount of GluN2B reacted with the compound of the present disclosure was measured using Western blot. The fetal cerebral cortex was extracted from mice at 17 days of gestation, dissociated into single cells, cultured for 13 days, and treated with BnH drugs for 24 hours. The drug-treated cells were subjected to protein lysate preparation using RIPA protein lysis buffer containing protease and phosphatase inhibitors. The protein concentration was determined using a BCA protein assay kit (Pierce Biotechnology) using bovine serum albumin as a standard. Equal amounts of protein (20 μg per lane) were separated by electrophoresis on SDS-polyacrylamide gels at 90 V for 2 hours, then transferred from the SDS-polyacrylamide gel to PVDF membrane at 100 V for 1 hour. Then, primary reaction with GluN2B antibody (ab65783, Abcam) was performed at 4° C. for 1 day, washed three times at 10-minutes intervals with 1×PBT, and secondary reaction was performed with anti-mouse antibody (sc-2357, Santa Cruz) for 1 hour, followed by washing three times at 10-minutes intervals with 1×PBT. Western blotting was performed as described above to confirm GluN2B protein expression. Subsequently, each blot was re-probed using anti-β-actin antibody (sc-47778, Santa Cruz). Housekeeping protein B-actin was detected as a normalization control.
The increase and decrease of BnH12 series were confirmed by setting the vehicle to 1 (N for each group was 3 or more).
Using the experimental procedure described in Example 3, it was determined whether various BnH12 series compounds increase GluN2B expression, and the results are shown in Table 5. These in vitro experimental results are expressed as relative values to the group (vehicle) that was not treated with the compound, with the effect of the group set to 1.

Compound | Cell viability test results (CCK) 10 uM (293T cells) | Cell viability test results (CCK) 100 uM (293T cells) | GluN2B expression effect (in words) (GluN2B; compared to vehicle / other compounds, Table 5) | Western blot results Mean (GluN2B expression) (GluN2B; relative value, vehicle set to 1, primary cortical neurons treated for 24 hours)
6-Ethyl-1-(2-(4-(pyrimidin-5-yl)phenyl) acetyl) piperidine-3-carboxylic acid [BnH12097] | 90%< | 85%< | excellent effects | 2.625
C[C@H]1CC[C@@H](C(=O)O)CN1C(=O)Cc1ccc(-c2ccc(F)cc2)cc1 [BnH12002, (3R,6S)-1-(2-(4′-fluoro-8 1,l′-biphenyl9-4-yl)acetyl)-6-methylpiperidine-3-carboxylic acid] | 90%< | 95%< |  | 
O=C(NO)[C@H]1CCCN1C(=O)Cc1ccc(-c2cncnc2)cc1 [BnH12015, (R)-N-hydroxy-1-(2-(4-(pyrimidin-5-yl)phenyl)acetyl) pyrrolidine-2-carboxamide] | 99%< | 99%< |  | 
C[C@H]1CC[C@@H](C(=O)O)CN1C(=O)Cc1ccc2nccnc2c1 [BnH12036, (3R,6S)-6-methyl-1-(2-(quinoxalin-6-yl)acetyl) piperidine-3-carboxylic acid] | 95%< | 95%< |  | 
C[C@H]1CC[C@@H](C(=O)O)CN1C(=O)Cc1ccc2c(c1)OCCO2 [BnH12037] | 99%< | 99%< |  | 
C[C@H]1CC[C@@H](C(=O)O)CN1C(=O)Cc1ccc(-c2ccccc2)cc1 [BnH12042] | 95%< | 90%< |  | 
C[C@H]1CC[C@@H](C(=O)O)CN1C(=O)Cc1ccc(-c2ccncc2)cc1 [BnH12043, (3R,6S)-6-methyl-1-(2-(4-(pyridin-4-yl)phenyl)acetyl) piperidine-3-carboxylic acid] | 99%< | 99%< |  | 
C[C@H]1CC[C@@H](C(=O)O)CN1C(=O)Cc1ccc(-c2ccccn2)cc1 [BnH12044, (3R,6S)-6-methyl-1-(2-(4-(pyridin-2-yl)phenyl)acetyl) piperidine-3-carboxylic acid] | 80%< | 75%< |  | 
C[C@H]1CC[C@@H](C(=O)O)CN1C(=O)Cc1ccc(-c2ncc(F)cn2)cc1 [BnH12049, (3R,6S)-1-(2-(4-(5-fluoropyrimidin-2-yl)phenyl)acetyl)-6-methylpiperidine-3-carboxylic acid] | 90%< | 85%< |  | 
C[C@H]1CC[C@@H](C(=O)O)CN1C(=O)Cc1ccc(-c2cnc(C3CC3)nc2)cc1 [BnH12052, (3R,6S)-1-(2-(4-(2-cyclopropylpyrimidin-5-yl)phenyl)acetyl)-6-methylpiperidine-3-carboxylic acid] | 80%< | 75%< |  | 
C[C@H]1CC[C@@H](C(=O)O)CN1C(=O)Cc1ccc(-c2ccncn2)cc1 [BnH12054, (3R,6S)-6-methyl-1-(2-(4-(pyrimidin-4-yl)phenyl)acetyl) piperidine-3-carboxylic acid] | 99%< | 99%< |  | 
C[C@H]1CC[C@@H](C(=O)O)CN1C(=O)Cc1ccc(-c2cccs2)cc1 [BnH12055, (3R,6S)-6-methyl-1-(2-(4-(thiophen-2-yl)phenyl)acetyl) piperidine-3-carboxylic acid] | 90%< | 60%< |  | 
C[C@H]1CC[C@@H](C(=O)O)CN1C(=O)Cc1ccc(-c2ccco2)cc1 [BnH12056, (3R,6S)-1-(2-(4-(furan-2-yl)phenyl)acetyl)-6-methylpiperidine-3-carboxylic acid] | 95%< | 90%< |  | 
C[C@H]1CC[C@@H](C(N)=O)CN1C(=O)Cc1ccc(-c2ncc(F)cn2)cc1 [BnH12059, (3R,6S)-1-(2-(4-(5-fluoropyrimidin-2-yl)phenyl)acetyl)-6-methylpiperidine-3-carboxamide] | 90%< | 70%< |  | 
C[C@H]1CC[C@@H](C(=O)O)CN1C(=O)Cc1ccc(-c2ccc([N+](=O)[O-])cc2)cc1 [BnH12077, (3R,6S)-6-methyl-1-(2-(4'-nitro-[1,1'-biphenyl]-4-yl)acetyl)piperidine-3-carboxylic acid] | 99%< | 60%< |  | 
C[C@H]1CC[C@@H](C(=O)O)CN1C(=O)c1ccc(-c2cccnc2)cc1 [BnH12080, (3R,6S)-6-methyl-1-(4-(pyridin-3-yl)benzoyl) piperidine-3-carboxylic acid] | 85%< | 85%< |  | 
COc1ccc(-c2ccc(CC(=O)N3C[C@H](C(=O)O)CC[C@@H]3C)cc2)cn1 [BnH12081, (3R,6S)-1-(2-(4-(6-methoxypyridin-3-yl)phenyl)acetyl)-6-methylpiperidine-3-carboxylic acid] | 85%< | 70%< |  | 
C[C@H]1CC[C@@H](C(=O)O)CN1C(=O)Cc1ccc(-c2ccc(C3CC3)nc2)cc1 [BnH12082, (3R,6S)-1-(2-(4-(6-cyclopropylpyridin-3-yl)phenyl)acetyl)-6-methylpiperidine-3-carboxylic acid] | 90%< | 90%< |  | 
C[C@H]1CC[C@@H](C(=O)O)CN1C(=O)Cc1ccc(-c2ccc(C(F)(F)F)nc2)cc1 [BnH12083, (3R,6S)-6-methyl-1-(2-(4-(6-(trifluoromethyl)pyridin-3-yl)phenyl)acetyl) piperidine-3-carboxylic acid] | 95%< | 75%< |  | 
Cc1ccc(-c2ccc(CC(=O)N3C[C@H](C(=O)O)CC[C@@H]3C)cc2)cn1 [BnH12084, (3R,6S)-6-methyl-1-(2-(4-(6-methylpyridin-3-yl)phenyl)acetyl) piperidine-3-carboxylic acid] | 80%< | 70%< |  | 
C[C@H]1CC[C@@H](C(=O)O)CN1C(=O)Cc1ccc(-c2ccc(-c3ccccc3)nc2)cc1 [BnH12087, (3R,6S)-6-methyl-1-(2-(4-(6-phenylpyridin-3-yl)phenyl)acetyl) piperidine-3-carboxylic acid] | 85%< | 45%< |  | 
